Measurements as given in ChEMBL document CHEMBL4152365, “Discovery of DS-6930, a potent selective PPARγ modulator. Part I: Lead identification” (Bioorg Med Chem, 2018).
Values after ≈ are worked out from the molar mass of the structure shown. Active and inactive are the calls of the source. The calls are words filed in the database; no cut-off is given here.

Experiments:
[1] = 1-octanol/PBS distribution co-efficient, log D of the compound at […] at pH 7.4 after 30 mins by HPLC-MS/MS analysis; format: physicochemical
[2] = target: T1, Peroxisome proliferator-activated receptor gamma (Homo sapiens) (UniProt P37231); experiment: Agonist activity at recombinant human GAL4-DBD fused PPARgamma LBD expressed in COS7 cells at 10 uM after 24 hrs by luciferase reporter gene assay relative to rosiglitazone; format: cell-based
T1 sequence (whole entry): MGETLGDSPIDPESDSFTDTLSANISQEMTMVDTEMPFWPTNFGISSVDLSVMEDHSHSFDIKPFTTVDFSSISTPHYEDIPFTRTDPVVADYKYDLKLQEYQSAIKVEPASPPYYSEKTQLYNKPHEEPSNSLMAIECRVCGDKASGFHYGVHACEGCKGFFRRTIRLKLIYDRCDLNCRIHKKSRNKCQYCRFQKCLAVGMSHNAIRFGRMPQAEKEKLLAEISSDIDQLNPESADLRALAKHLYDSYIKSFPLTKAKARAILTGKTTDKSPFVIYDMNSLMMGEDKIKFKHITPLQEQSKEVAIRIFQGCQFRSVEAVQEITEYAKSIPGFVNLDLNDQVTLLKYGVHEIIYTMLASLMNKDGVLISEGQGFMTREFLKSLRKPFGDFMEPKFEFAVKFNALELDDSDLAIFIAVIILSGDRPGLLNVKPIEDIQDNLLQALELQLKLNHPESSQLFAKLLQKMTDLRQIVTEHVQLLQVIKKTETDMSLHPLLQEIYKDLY

[3] = Aqueous thermodynamic solubility of the compound in pH 6.8 solution up to 4 hrs by HPLC-UV analysis; format: physicochemical; conditions: read-out: Therm_solubility
[4] = Metabolic stability in human liver microsomes after 0.5 hrs; format: ADME, microsome; conditions: read-out: Stability
[5] = target: T2, Peroxisome proliferator-activated receptor alpha (Homo sapiens) (UniProt Q07869); experiment: Agonist activity at recombinant human GAL4-DBD fused PPARalpha LBD expressed in COS7 cells at 10 uM after 24 hrs by luciferase reporter gene assay relative to 2-(4-tert-Butylphenoxy)-3-[4-[2-[(4-pyridin-2-ylbenzoyl)amino]ethoxy]; format: cell-based
T2 sequence (whole entry): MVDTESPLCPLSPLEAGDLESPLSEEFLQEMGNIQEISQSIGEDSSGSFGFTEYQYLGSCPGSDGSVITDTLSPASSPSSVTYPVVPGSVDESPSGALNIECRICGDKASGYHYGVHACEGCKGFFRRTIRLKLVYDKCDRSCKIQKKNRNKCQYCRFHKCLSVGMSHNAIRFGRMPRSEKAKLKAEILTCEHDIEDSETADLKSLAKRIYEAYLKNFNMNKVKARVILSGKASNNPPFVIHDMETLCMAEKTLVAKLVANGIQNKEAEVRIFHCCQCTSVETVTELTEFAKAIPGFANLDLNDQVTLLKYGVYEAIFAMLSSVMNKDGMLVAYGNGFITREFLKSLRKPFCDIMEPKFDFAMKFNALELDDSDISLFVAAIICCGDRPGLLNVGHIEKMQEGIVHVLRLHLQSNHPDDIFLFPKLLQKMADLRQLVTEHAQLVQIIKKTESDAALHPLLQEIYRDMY

[6] = test system: Mus musculus; experiment: Toxicity in hyperglycemic KK/Ta mouse assessed as body weight gain at 30 mg/kg/day, po administered through diet for 3 days relative to control; format: organism-based; conditions: in vivo, 72 h
[7] = Plasma concentration in hyperglycemic KK/Ta mouse at 30 mg/kg/day, po administered through diet for 3 days measured on day 3 post last dose; format: ADME, organism-based
[8] = target: T3, Peroxisome proliferator-activated receptor gamma (Homo sapiens, UniProt P37231); experiment: Agonist activity at recombinant human GAL4-DBD fused PPARgamma LBD expressed in COS7 cells after 24 hrs by luciferase reporter gene assay; format: cell-based
T3 sequence (P37231 whole entry): T1 sequence (whole entry)

[9] = target: T4, Peroxisome proliferator-activated receptor alpha (Homo sapiens, UniProt Q07869); experiment: Agonist activity at recombinant human GAL4-DBD fused PPARalpha LBD expressed in COS7 cells after 24 hrs by luciferase reporter gene assay; format: cell-based
T4 sequence (Q07869 whole entry): T2 sequence (whole entry)

[10] = test system: Mus musculus; experiment: Glucose-lowering effect in hyperglycemic KK/Ta mouse assessed as reduction in plasma glucose level at 30 mg/kg/day, po administered through diet for 3 days relative to control; format: functional; parameters: scale not given: the % may be the effect or the level left
[11] = target: T5, Peroxisome proliferator-activated receptor delta (Homo sapiens) (UniProt Q03181); experiment: Agonist activity at PPARdelta (unknown origin) at 10 uM
T5 sequence (whole entry): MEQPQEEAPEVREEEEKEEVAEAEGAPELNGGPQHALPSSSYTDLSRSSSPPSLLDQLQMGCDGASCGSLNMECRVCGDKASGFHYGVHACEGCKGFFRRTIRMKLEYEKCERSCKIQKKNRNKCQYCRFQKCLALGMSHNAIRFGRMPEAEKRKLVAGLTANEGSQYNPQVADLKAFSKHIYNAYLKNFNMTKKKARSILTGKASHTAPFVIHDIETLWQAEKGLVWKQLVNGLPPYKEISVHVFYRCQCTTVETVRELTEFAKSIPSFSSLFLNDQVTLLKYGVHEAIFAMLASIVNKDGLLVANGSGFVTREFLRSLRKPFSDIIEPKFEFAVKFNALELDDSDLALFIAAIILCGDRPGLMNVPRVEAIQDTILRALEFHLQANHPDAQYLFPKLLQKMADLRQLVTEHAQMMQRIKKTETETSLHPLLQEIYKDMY

logD at 0.5 h [1] | Emax [2] | solubility thermodynamic at 4 h [3] | remaining at 0.5 h [4] | Emax [5] | concentration at 72 h [7] | EC50 [8] | EC50 [9] | Activity [11] | Compound | Activity [6] | Activity [10]
1.4 | 73% | 11 µg/mL | 88% | – | – | – | – | – | Cc1cc(Oc2ccc3nc(COc4cccc(C(=O)O)c4)n(C)c3c2)cc(C)c1N.Cl.Cl | – | –
2.4 | 111% | 11 µg/mL (≈ 27.1 µM) | 83% | 37% | 120 ng/mL | 139 nM | > 10000 nM | – | Cc1ccc(F)c(Oc2ccc3nc(COc4cccc(C(=O)O)c4)n(C)c3c2)c1 | 1.6% | 49.4%
– | 52% | – | – | – | – | 6090 nM | – | – | Cc1cc(Oc2ccc3nc(COc4ccccc4C(=O)O)n(C)c3c2)cc(C)c1N | – | –
– | 96% | – | – | – | – | 356 nM | – | – | CC(=O)c1ccccc1OCc1nc2ccc(Oc3cc(C)c(N)c(C)c3)cc2n1C | – | –
– | 64% | – | – | – | – | 12 nM | – | – | CCc1ccc2ccc(F)cc2c1CNC(=O)c1c(OC)cc(O)c2c1OC1=CC(O)=C(C(C)=O)C(=O)[C@]12C | – | –
2.3 | 61% | – | 69% | 28% | 190 ng/mL | 62 nM | > 10000 nM | – | Cc1cc(Oc2ccc3nc(COc4cccc(C(=O)O)c4)n(C)c3c2)ccc1F.Cl | 3.5% | 49.4%
2.1 | 86% | – | 88% | 52% | – | 230 nM | – | – | Cn1c(COc2cccc(C(=O)O)c2)nc2ccc(Oc3cccc(F)c3F)cc21 | 4.3% | 35.8%
2.5 | 84% | 0.6 µg/mL (≈ 1.48 µM) | 64% | 17% | – | 39 nM | > 10000 nM | – | Cc1ccc(F)cc1Oc1ccc2nc(COc3cccc(C(=O)O)c3)n(C)c2c1 | 5.1% | 26.4%
– | 91% | – | – | – | – | 797 nM | – | – | Cc1cc(Oc2ccc3nc(COc4ccc(C(=O)O)cc4)n(C)c3c2)cc(C)c1N | – | –
– | 79% | – | – | – | – | 395 nM | – | – | Cc1cc(Oc2ccc3nc(COc4ccc(C#N)cc4)n(C)c3c2)cc(C)c1N | – | –
2.4 | 79% | 0.8 µg/mL (≈ 1.93 µM) | 100% | 37% | 380 ng/mL | 188 nM | > 10000 nM | – | Cn1c(COc2cccc(C(=O)O)c2)nc2ccc(Oc3ccc4ccoc4c3)cc21 | 2.5% | 48.3%
– | 70% | – | – | – | – | 340 nM | – | – | CC(=O)c1ccc(OCc2nc3ccc(Oc4cc(C)c(N)c(C)c4)cc3n2C)cc1 | – | –
– | 92% | – | – | – | – | 43 nM | – | – | Cc1cc(Oc2ccc3nc(COc4cccc(C#N)c4)n(C)c3c2)cc(C)c1N | – | –
1.8 | 76% | – | 85% | 19% | – | 1330 nM | > 10000 nM | – | Cn1c(COc2cccc(C(=O)O)c2)nc2ccc(Oc3c(F)cccc3F)cc21 | – | –
– | 86% | – | – | – | – | 65 nM | – | – | CC(=O)c1cccc(OCc2nc3ccc(Oc4cc(C)c(N)c(C)c4)cc3n2C)c1 | – | –
1.7 | 60% | 7.6 µg/mL | 87% | 8% | – | 87 nM | > 10000 nM | – | Cl.Cn1c(COc2cccc(C(=O)O)c2)nc2ccc(Oc3ccc4c(c3)CCO4)cc21 | – | –
2 | 71% | – | 100% | 39% | 160 ng/mL | 118 nM | > 10000 nM | – | Cl.Cn1c(COc2cccc(C(=O)O)c2)nc2ccc(Oc3ccc(F)c(F)c3)cc21 | 3.4% | 56%
2.4 | 56% | – | – | 37% | – | 40 nM | > 10000 nM | inactive | CCOc1cccc(Oc2ccc3nc(COc4cccc(C(=O)O)c4)n(C)c3c2)c1 | 3.3% | 22%
– | 73% | – | – | – | – | 318 nM | – | – | Cc1cc(Oc2ccc3nc(COc4ccccc4)n(C)c3c2)cc(C)c1N | – | –
2.8 | 79% | – | – | 52% | 170 ng/mL | 64 nM | – | – | Cl.Cn1c(COc2cccc(C(=O)O)c2)nc2ccc(Oc3ccc(F)c(Cl)c3)cc21 | 3.7% | 30%
1.7 | 125% | 12 µg/mL (≈ 30.6 µM) | – | 21% | – | 1430 nM | > 10000 nM | inactive | Cn1c(COc2cccc(C(=O)O)c2)nc2ccc(Oc3ccccc3F)cc21 | – | –
– | 126% | – | – | – | – | 43 nM | – | – | COc1ccc2nc(COc3ccc(CC4SC(=O)NC4=O)cc3)n(C)c2c1 (stereo unspecified) [RIVOGLITAZONE] | – | –
– | 80% | – | – | – | – | 391 nM | – | – | Cc1cc(Oc2ccc3nc(COc4ccccc4C#N)n(C)c3c2)cc(C)c1N | – | –
– | 100% | – | – | – | – | 0.038 nM | – | – | Cc1cc(Oc2ccc3nc(COc4ccc(CC5SC(=O)NC5=O)cc4)n(C)c3c2)cc(C)c1N (stereo unspecified) [EFATUTAZONE] | – | –
2.8 | 78% | 0.9 µg/mL (≈ 2.11 µM) | 78% | 43% | 370 ng/mL | 23 nM | > 10000 nM | – | Cn1c(COc2cccc(C(=O)O)c2)nc2ccc(Oc3cc(F)cc(Cl)c3)cc21 | 3.1% | 57.5%
1.8 | 90% | 2 µg/mL | 100% | – | – | – | – | inactive | Cl.Cn1c(COc2cccc(C(=O)O)c2)nc2ccc(Oc3ccccc3)cc21 | – | –
2.7 | 84% | 0.5 µg/mL (≈ 1.23 µM) | 100% | 29% | 190 ng/mL | 21 nM | > 10000 nM | – | Cc1cc(F)cc(Oc2ccc3nc(COc4cccc(C(=O)O)c4)n(C)c3c2)c1 | 1.7% | 58.3%
2.3 | 54% | 10 µg/mL (≈ 24.4 µM) | – | 33% | 360 ng/mL | 95 nM | > 10000 nM | – | Cn1c(COc2cccc(C(=O)O)c2)nc2ccc(Oc3cc(F)cc(F)c3)cc21 | 4.4% | 39.5%
1.9 | 77% | 11 µg/mL (≈ 26.8 µM) | 100% | 17% | 370 ng/mL | 143 nM | > 10000 nM | – | Cn1c(COc2cccc(C(=O)O)c2)nc2ccc(Oc3ccc(F)cc3F)cc21 | 3.7% | 37.6%
